Source: article PMC5789847, “Bismuth antimicrobial drugs serve as broad-spectrum metallo-β-lactamase inhibitors” (Nature Communications, 2018)
Several values for one entry are separate records, joined by “and”; a condition that tells them apart may be missing. Identical values can stand only once.

Key:
NDM-HK [1] = test: Murine peritonitis infection, mucin-free model; type: in vivo, BALB/c mice; details: without mucin; MER 50 mg kg^−1 + CBS 50 mg kg^−1, up to 86 h
Excerpt: All experiments were approved by, and performed in accordance with the guidelines approved by Committee on the Use of Live Animals in Teaching and Research (CULATR), the University of Hong Kong. A total of 6–8-week-old, female BALB/c mice (18–22 g) were purchased from Charles River Laboratories, Inc. and were used in all mouse studies. The animals were randomized to cages for each experiment.
In mucin-free survival experiment, the mice were infected with a dose of 5 × 10^7 CFU of NDM-HK in PBS. The mice received monotherapy of MER (50 mg kg^−1) or CBS (50 mg kg^−1), or combination therapy 0.5 h post infection (n = 5 for each group). Other experimental operations and conditions were kept the same as that in mucin-assisted model. Body weights and mice survival were monitored for endpoint till endpoint of the experiment.

[2] = tested on: NDM-K. pneumonia (NDM-1^+); test: Microdilution MIC/MBC and checkerboard assay; type: cell-based, Klebsiella pneumonia
Experimental: (§1) MIC values were determined by standard broth micro-dilution method (Clinical and Laboratory Standards Institute (CLSI) M100-S20, 2010)[64]. Briefly, bacterial cells were cultured in LB broth overnight at 37 °C at 250 rpm and the OD was measured at 600 nm (OD600). The bacterial density was adjusted to about 1 × 10^6 CFU mL^−1 and checked by CFU counting on agar plates afterwards. Tested antibiotics or Bi(III) compounds were added triplicately into individual wells of flat-bottomed 96-well plates and performed 2-fold serial dilution, followed by addition of prepared bacterial inocula. The plate was then incubated at 37 °C for overnight. […] The MIC was determined as the lowest concentration of a drug that could inhibit the growth of microorganism by both visual reading and OD reading at 600 nm using a microtiter plate reader.
(§2) Resulting growth (or lack of growth) was examined after overnight culturing and the lowest concentration that inhibits 99.9% of the original culture was taken as MBC.
(§3) Other procedures were kept strictly the same. […] Synergism was defined when FICI ≤ 0.5, indifference was defined when FICI > 0.5 and < 4, and antagonism was defined when FICI≥4[65]. […] All of the determinations were performed at least in triplicate on different days.

VIM-2 = VIM-2 (Escherichia coli, UniProt Q5U7L7); type: biochemical; details: MER substrate
Experimental: (§4) Freshly prepared 50 nM of Zn2-NDM-1, Zn2-VIM-2, or Zn2-IMP-4 in 50 mM HEPES/Na pH 7.0, 100 mM NaCl were first incubated with various concentrations of CBS for 1 h at 25 °C, then mixed with equal volume of 0.2 mM MER. The assay was performed in a 1 cm quartz cuvette using the kinetic mode on a Varian Cary50 UV-visible spectrophotometer at 25 °C. The decrease in absorbance at 300 nm due to ring-opening of MER was monitored every second for a duration of 10 min until the reaction was completed. The initial rates were extracted and calculated from each reaction curves for fitting IC50 curves.

NDM-1 = NDM-1 (Klebsiella pneumoniae, UniProt C7C422); type: biochemical; details: MER substrate
Chain of NDM-1 (C7C422 29-270, looked up, species assumed): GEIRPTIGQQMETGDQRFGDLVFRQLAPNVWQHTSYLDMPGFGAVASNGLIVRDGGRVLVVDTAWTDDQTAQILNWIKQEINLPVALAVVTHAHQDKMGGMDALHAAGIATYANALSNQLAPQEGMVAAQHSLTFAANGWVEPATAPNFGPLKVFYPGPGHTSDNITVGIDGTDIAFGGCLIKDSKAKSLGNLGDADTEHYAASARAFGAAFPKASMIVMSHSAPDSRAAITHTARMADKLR
Experimental: as §4

NDM-1-C208A = NDM-1-C208A (Klebsiella pneumoniae, UniProt C7C422, C208A); test: Cellular thermal shift assay, mutant strain C208A-Rosetta; type: cell-based, E. coli; details: control 48.24 °C
Chain of NDM-1-C208A (C7C422 29-270 C208A): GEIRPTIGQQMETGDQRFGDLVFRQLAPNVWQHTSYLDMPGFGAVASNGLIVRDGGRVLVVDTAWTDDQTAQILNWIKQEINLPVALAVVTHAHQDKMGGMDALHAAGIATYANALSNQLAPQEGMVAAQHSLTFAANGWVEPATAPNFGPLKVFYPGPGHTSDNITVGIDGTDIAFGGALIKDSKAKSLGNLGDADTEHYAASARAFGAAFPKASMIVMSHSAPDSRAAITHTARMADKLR

NDM-HK PCV = test: Microdilution MIC and checkerboard assay; type: cell-based, E. coli
Experimental: The bacteria employed for cell-based and animal studies are listed in Supplementary Table 1. All the E. coli variants were made as described below. The NDM-HK PCV was screened by 20th-generation serial passages of NDM-HK in antibiotic-free medium.
as §1, §3

NDM-HK [3] = test: Resistance study: MPC and mutation frequency; type: cell-based, E. coli
[4] = tested on: NDM-C. freundii (NDM-1^+); test: Microdilution MIC/MBC and checkerboard assay; type: cell-based, Citrobacter freundii
Experimental: as §1, §2, §3

colloidal bismuth subcitrate [CBS]
mice survived, MER and CBS co-administrated (NDM-HK [1]): 40%
MBC of MER in combination with compound at 32 µg mL^-1 ([2]; NDM-K. pneumonia (NDM-KP)): 8 µg/mL
MIC of MER in combination with compound at 32 µg mL^-1 ([2]; NDM-K. pneumonia (NDM-KP)): 4 µg/mL
MBC of Bi(III) compound alone ([2]; NDM-KP): > 256 µg/mL
MIC of Bi(III) compound alone ([2]; NDM-KP): > 256 µg/mL
FICI ([2]; NDM-KP, MER + compound, 256 µg mL^-1 set as MIC of Bi(III)): 0.375
IC50 (VIM-2; VIM-2 50 nM, 1 h preincubation): 3.54 µM and 3.55 µM
maximal inhibition of MBL activity (VIM-2; VIM-2, dose-dependent): approximately 90%
IC50 (NDM-1; NDM-1 50 nM, 1 h preincubation): 2.81 ± 0.34 µM
maximal inhibition of MBL activity (NDM-1; NDM-1, dose-dependent): approximately 90%
melting temperature, treated group (NDM-1-C208A): 49.72 °C
growth inhibition by CBS itself (NDM-HK PCV; NDM-1-negative NDM-HK PCV, even at 256 µg mL^-1): no or minor growth inhibition
MIC of MER in combination with CBS at 16 µg mL-1 (NDM-HK PCV; NDM-HK PCV): 0.03 µg/mL
MIC of MER in combination with CBS at 32 µg mL-1 (NDM-HK PCV; NDM-HK PCV): 0.03 µg/mL
MIC of MER in combination with CBS at 256 µg mL-1 (NDM-HK PCV; NDM-HK PCV): 0.03 µg/mL
FICI (NDM-HK PCV; NDM-HK PCV, MER + CBS): 2
observed mutation frequency (NDM-HK [3]; MER with increasing CBS concentration): 1.31 × 10^−7 to 9.84 × 10^−10
MER MPC with CBS (NDM-HK [3]; ≥128 µg mL^−1 CBS): 2 fold MIC
MBC of MER in combination with compound at 32 µg mL^-1 ([4]; NDM-C. freundii (NDM-CF)): 1 µg/mL
MIC of MER in combination with compound at 32 µg mL^-1 ([4]; NDM-C. freundii (NDM-CF)): 0.5 µg/mL
MBC of Bi(III) compound alone ([4]; NDM-CF): > 256 µg/mL
MIC of Bi(III) compound alone ([4]; NDM-CF): > 256 µg/mL
FICI ([4]; NDM-CF, MER + compound, 256 µg mL^-1 set as MIC of Bi(III)): 0.125
